PubChem BioAssay AID1963832 (Molecular Pharmacology Branch, DTP, NCI, 2024)

Tested on: 885724-159-R-J1-PDC complex spheroid viability
Test: Anticancer human tumor 885724-159-R-J1-PDC patient-derived pancreatic adenocarcinoma cell line growth inhibition [POLQ]
Settings: for IC50: curve of first compound; for viability, T/C: stronger effect = lower value
In short: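 Patient-derived tumour cells were co-cultured with HUVEC and mesenchymal stem cells as multicellular spheroids at 37 °C. They were treated with POLQ inhibitors (novobiocin, ART-558, RP6685) alone or combined with other agents. Top concentrations were at or near clinical Cmax (otherwise 10 microM; SN-38 at 1 microM), decreasing in half-log steps.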

[1] = second compound 0.0316 µM, first compound 0.0316 µM
[2] = second compound 0.0316 µM, first compound 0.1 µM
[3] = second compound 0.0316 µM, first compound 0.316 µM
[4] = second compound 0.0316 µM, first compound 1 µM
[5] = second compound 0.0316 µM, first compound 3.16 µM
[6] = second compound 0.0316 µM, first compound 10 µM
[7] = second compound 0.1 µM, first compound 0.0316 µM
[8] = second compound 0.1 µM, first compound 0.1 µM
[9] = second compound 0.1 µM, first compound 0.316 µM
[10] = second compound 0.1 µM, first compound 1 µM
[11] = second compound 0.1 µM, first compound 3.16 µM
[12] = second compound 0.1 µM, first compound 10 µM
[13] = second compound 0.316 µM, first compound 0.0316 µM
[14] = second compound 0.316 µM, first compound 0.1 µM
[15] = second compound 0.316 µM, first compound 0.316 µM
[16] = second compound 0.316 µM, first compound 1 µM
[17] = second compound 0.316 µM, first compound 3.16 µM
[18] = second compound 0.316 µM, first compound 10 µM
[19] = second compound 1 µM, first compound 0.0316 µM
[20] = second compound 1 µM, first compound 0.1 µM
[21] = second compound 1 µM, first compound 0.316 µM
[22] = second compound 1 µM, first compound 1 µM
[23] = second compound 1 µM, first compound 3.16 µM
[24] = second compound 1 µM, first compound 10 µM
[25] = second compound 3.16 µM, first compound 0.0316 µM
[26] = second compound 3.16 µM, first compound 0.1 µM
[27] = second compound 3.16 µM, first compound 0.316 µM
[28] = second compound 3.16 µM, first compound 1 µM
[29] = second compound 3.16 µM, first compound 3.16 µM
[30] = second compound 3.16 µM, first compound 10 µM
[31] = second compound 10 µM, first compound 0.0316 µM
[32] = second compound 10 µM, first compound 0.1 µM
[33] = second compound 10 µM, first compound 0.316 µM
[34] = second compound 10 µM, first compound 1 µM
[35] = second compound 10 µM, first compound 3.16 µM
[36] = second compound 10 µM, first compound 10 µM
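Further: spheroids exposed to compounds for 7 days.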

`O=C(c1cc(Cc2n[nH]c(=O)c3ccccc23)ccc1F)N1CCN(C(=O)C2CC2)CC1` + Nc1ccc(C#CCN(C(=O)Cc2ncc(C(F)(F)F)cc2C(F)(F)F)c2ccc(F)cc2)nn1 was tested. Which IC50 (second compound 0.0316 µM) did it give?
The IC50 was over 10 µM.

And the IC50 (second compound 0.1 µM)?
Its IC50 is over 10 µM.

And the IC50 (second compound 0.316 µM)?
Its IC50 is over 10 µM.

What about the IC50 (second compound 1 µM) of the same compound?
The IC50 was over 10 µM.

What about the IC50 (second compound 3.16 µM) of the same compound?
The IC50 was over 10 µM.

And the IC50 (second compound 10 µM)?
Its IC50 is over 10 µM.

And the viability, T/C [1]?
Its viability, T/C is 90.7%.

And the viability, T/C [2]?
Its viability, T/C is 97.2%.

What about the viability, T/C [3] of the same compound?
Its viability, T/C is 95.1%.

And the viability, T/C [4]?
Its viability, T/C is 88.2%.

And the viability, T/C [5]?
The viability, T/C was 89.4%.

What about the viability, T/C [6] of the same compound?
The viability, T/C was 80.4%.

And the viability, T/C [7]?
The viability, T/C was 95%.

And the viability, T/C [8]?
The viability, T/C was 94.5%.

And the viability, T/C [9]?
Its viability, T/C is 85.7%.

What about the viability, T/C [10] of the same compound?
The viability, T/C was 96.7%.

What about the viability, T/C [11] of the same compound?
Its viability, T/C is 84.1%.

And the viability, T/C [12]?
The viability, T/C was 77.6%.

And the viability, T/C [13]?
The viability, T/C was 85.4%.

What about the viability, T/C [14] of the same compound?
The viability, T/C was 94.5%.

And the viability, T/C [15]?
Its viability, T/C is 100%.

What about the viability, T/C [16] of the same compound?
Its viability, T/C is 87.8%.

And the viability, T/C [17]?
The viability, T/C was 86.2%.

And the viability, T/C [18]?
Its viability, T/C is 75.8%.

What about the viability, T/C [19] of the same compound?
Its viability, T/C is 101%.

What about the viability, T/C [20] of the same compound?
The viability, T/C was 90.6%.

What about the viability, T/C [21] of the same compound?
Its viability, T/C is 84.6%.

What about the viability, T/C [22] of the same compound?
Its viability, T/C is 99%.

What about the viability, T/C [23] of the same compound?
Its viability, T/C is 88.7%.

What about the viability, T/C [24] of the same compound?
The viability, T/C was 84%.

And the viability, T/C [25]?
Its viability, T/C is 98%.

And the viability, T/C [26]?
The viability, T/C was 92%.

And the viability, T/C [27]?
Its viability, T/C is 84.7%.

What about the viability, T/C [28] of the same compound?
The viability, T/C was 82%.

And the viability, T/C [29]?
The viability, T/C was 88.1%.

And the viability, T/C [30]?
The viability, T/C was 80.8%.

What about the viability, T/C [31] of the same compound?
The viability, T/C was 102%.

And the viability, T/C [32]?
Its viability, T/C is 94.3%.

What about the viability, T/C [33] of the same compound?
The viability, T/C was 87.4%.

And the viability, T/C [34]?
The viability, T/C was 94.1%.

And the viability, T/C [35]?
Its viability, T/C is 95.6%.

What about the viability, T/C [36] of the same compound?
The viability, T/C was 75.6%.

Which results are given for `O=c1[nH]cc(F)c(=O)[nH]1` + Nc1ccc(C#CCN(C(=O)Cc2ncc(C(F)(F)F)cc2C(F)(F)F)c2ccc(F)cc2)nn1?
IC50 (second compound 0.0316 µM): > 10 µM; IC50 (second compound 0.1 µM): > 10 µM; IC50 (second compound 0.316 µM): > 10 µM; IC50 (second compound 1 µM): > 10 µM; IC50 (second compound 3.16 µM): > 10 µM; IC50 (second compound 10 µM): > 10 µM; viability, T/C [1]: 88.7%; viability, T/C [2]: 99.5%; viability, T/C [3]: 93.2%; viability, T/C [4]: 101%; viability, T/C [5]: 100%; viability, T/C [6]: 75.2%; viability, T/C [7]: 94%; viability, T/C [8]: 100%; viability, T/C [9]: 92.1%; viability, T/C [10]: 96%; viability, T/C [11]: 87%; viability, T/C [12]: 74.9%; viability, T/C [13]: 100%; viability, T/C [14]: 98.2%; viability, T/C [15]: 92.2%; viability, T/C [16]: 90.9%; viability, T/C [17]: 89.4%; viability, T/C [18]: 82.7%; viability, T/C [19]: 96.9%; viability, T/C [20]: 88.8%; viability, T/C [21]: 96%; viability, T/C [22]: 93.2%; viability, T/C [23]: 81.3%; viability, T/C [24]: 71.7%; viability, T/C [25]: 97.1%; viability, T/C [26]: 86.4%; viability, T/C [27]: 86.9%; viability, T/C [28]: 92.8%; viability, T/C [29]: 97.5%; viability, T/C [30]: 71.6%; viability, T/C [31]: 105%; viability, T/C [32]: 109%; viability, T/C [33]: 94%; viability, T/C [34]: 86.5%; viability, T/C [35]: 92.8%; viability, T/C [36]: 81.9%
